According to publication PMC8994671 (ACS infectious diseases, 2017):
In brackets after ≈: the same amount, converted by molar mass. Read-outs that look alike come from different tables or passages of the source.

Key:
C. neoformans = assay: In vitro antifungal susceptibility testing; type: cell-based, Cryptococcus neoformans; details: for MIC: Cryptococcus neoformans, read-out: C. neoformans MIC; for C. neoformans MIC: Table 1, highest value of at least three biological replicates
[1] = test system: calmodulin-dependent localization of Crz1; details: assay validation; cited from earlier work
C. albicans [2] = details: cited from earlier work
C. albicans [3] = assay: In vitro antifungal susceptibility testing; type: cell-based; details: Candida albicans, SC5314, read-out: C. albicans MIC
[4] = test system: calmodulin-dependent localization of Crz1; assay: Crz1 nuclear translocation assay; type: cell-based, Cryptococcus neoformans; details: shift to 37°C

Structure (SMILES)	MIC (C. neoformans) [µg/mL]	C. neoformans MIC (C. neoformans) [µg/mL]	further results
CCN(CC)CCCCN1c2ccccc2Oc2ccc(Cl)cc21 [Compound 12]	–	8	–
C=CC[C@@H]1/C=C(\C)C[C@H](C)C[C@H](OC)[C@H]2O[C@@](O)(C(=O)C(=O)N3CCCC[C@H]3C(=O)O[C@H](/C(C)=C/[C@@H]3CC[C@@H](O)[C@H](OC)C3)[C@H](C)[C@@H](O)CC1=O)[C@H](C)C[C@@H]2OC [FK506]	–	–	Effect on nuclear localization of Crz1 [1]: reduce nuclear localization of Crz1
OC(Cn1cncn1)(Cn1cncn1)c1ccc(F)cc1F [FLU, Fluconazole]	–	–	C. albicans MIC (C. albicans [2]; strain SC5314): 0.25 µg/mL; C. albicans MIC (C. albicans [2]; strain TWO7229): 0.25 µg/mL; C. albicans MIC (C. albicans [2]; strain TWO7230): 2 µg/mL; C. albicans MIC (C. albicans [2]; strain TWO7241): 16 µg/mL; C. albicans MIC (C. albicans [2]; strain TWO7243): 128 µg/mL
CSc1ccc2c(c1)N(CCC1CCCCN1C)c1ccccc1S2 (stereo not shown) [Thioridazine, THZ (1), Thioridazine]	16 (≈ 43.2 µM)	16	–
CN1CCN(CCCN2c3ccccc3Sc3ccc(C(F)(F)F)cc32)CC1 [Trifluoperazine, TFP (8), Trifluoperazine]	16 (≈ 39.3 µM)	16	MIC (C. albicans [3]): > 32 µg/mL; Effect on Crz1 localization ([4]; higher concentrations than 2 μg/mL, Fig. 1B): reduce localization significantly; Effect on Crz1 localization ([4]; sub-inhibitory concentration 2 μg/mL): fail to affect Crz1 localization; Effect on nuclear localization of Crz1 [1]: reduce nuclear localization of Crz1
CC/C(=C(\c1ccccc1)c1ccc(OCCN(C)C)cc1)c1ccccc1 [tamoxifen]	–	–	Effect on nuclear localization of Crz1 [1]: reduce nuclear localization of Crz1

More lines, main results first:

MIC (C. neoformans) [µg/mL]	Structure (SMILES)	C. neoformans MIC (C. neoformans) [µg/mL]	further results
25 (≈ 78.4 µM)	CN(C)CCCN1c2ccccc2Sc2ccc(Cl)cc21 [Chlorpromazine (3), Chlorpromazine]	–	–
8 (≈ 18.3 µM)	OCCN1CCN(CCCN2c3ccccc3Sc3ccc(C(F)(F)F)cc32)CC1 [Fluphenazine (10), Fluphenazine]	8	–
64 (≈ 171 µM)	CN1CCN(CCCN2c3ccccc3Sc3ccc(Cl)cc32)CC1 [Prochlorperazine (7), Prochlorperazine]	–	–
64 (≈ 225 µM)	CN(C)CCCN1c2ccccc2Sc2ccccc21 [Promazine (2), Promazine]	–	–
32 (≈ 90.8 µM)	CN(C)CCCN1c2ccccc2Sc2ccc(C(F)(F)F)cc21 [Triflupromazine (4), Triflupromazine]	–	–
